Experimental data as given in publication PMC3968014, “Design and Synthesis of a Library of Lead-Like 2,4-Bisheterocyclic Substituted Thiophenes as Selective Dyrk/Clk Inhibitors” (PLoS ONE, 2014).
Like-named read-outs stand apart in the source and are kept apart here.

Tests used:
CK2α = biological target: T1, CK2α (Homo sapiens, UniProt P68400); assay: CK2α kinase assay (counter screen); type: biochemical; settings: read-out: percentage of inhibition CK2α
T1 construct: purchased Life Technologies (Invitrogen SelectScreen); Dyrk1A, Dyrk2 and CK2α in-house or gifts
Protocol: Dyrk1A, Dyrk1B, Dyrk2, CK2α and Clk1 kinase reactions were performed in a reaction buffer containing 50 mM Tris/HCl, pH 7.4, 0.1 mM EGTA, 0.5 mM DTT, 10 mM MgCl2, 100 µM ATP and 0.33 µM [γ-^32ATP] as well as the appropriate substrate peptides, which were 100 µM Woodtide for the Dyrk isoforms ([…]-NH2), 60 µM CK2 substrate peptide ([…]-NH2, from Millipore) for CK2α or RS repeat peptide ([…]) for Clk1. The CK2α protein was a kind gift of M. Montenarh (Homburg). The kinase reactions were performed at 30°C for 15 min and terminated by spotting 5 µL of the reaction mixture onto a P81 phosphocellulose membrane (Whatman). The membrane was washed four times with 0.3% phosphoric acid and one time with acetone and dried. The dry membrane was exposed in a cassette to a Phosphor Screen Imaging Plate (FujiFilm) and the signals detected by scanning of the imaging plate in a Fuji FLA-3000 PhosphoImager. The spots were quantified using AIDA software (Raytest, Version 3.52) to determine the activities of the kinases in the assay reactions. […] IC50 values were calculated by fitting the data with Origin Pro 8.6 (OriginLabs). The calculated IC50 values are representative of at least two independent determinations.

[1] = Determination of logP, pka and logS (Sirius T3); type: physicochemical; settings: Experimental
Protocol: The physicochemical parameters were determined on a Sirius T3 machine (Sirius Analytical machines, East Sussex, UK) by automated titration according to the manufacturer's instructions.

Dyrk1A = biological target: T2, Dyrk1A (Homo sapiens, UniProt Q13627); assay: Dyrk1A kinase assay (32P-ATP, Woodtide); type: biochemical; settings: read-out: percentage of inhibition Dyrk1A
T2 construct: encoding the catalytic domain of human Dyrk1A; thrombin cleavage site (N); made in house; host or cells: Escherichia coli BL21(DE3) with pRARE

[2] = test system: V79 hamster lung fibroblast cells; assay: ViaLight Toxicity Assay; type: cell-based; settings: 48 hours
Protocol: V79 hamster lung fibroblast cells were plated at a density of 45,000 cells per well in a white 96 well plate and allowed to adhere and grow for 24 hours. The compounds were then applied as dilutions in cell culture medium (DMEM with 10% FCS and penicillin/streptomycin mix) at a final concentration of 5, 10, and 20 µM, respectively. The plate was further incubated for 48 hours at 37°C in a humidified atmosphere containing 5% CO2. The ATP level was detected with a LONZA ViaLight™ Plus Kit according to protocol 1 of the vendor's instructions. Luminescence was measured in a POLARstar plate reader (BMG Labtech, Offenburg, Germany). The background luminescence was obtained from equally treated, cell-free wells containing serum, and subtracted from all values. Inhibition values obtained for different compound concentrations were compared using the two-sided Student's t-test; levels of significance thus obtained are indicated by asterisks.

Dyrk2 = biological target: T3, Dyrk2 (Homo sapiens, UniProt Q92630); assay: Dyrk2 kinase assay (32P-ATP, Woodtide); type: biochemical; settings: for inhibition at 5 µM: read-out: percentage of inhibition Dyrk2
T3 construct: made in house; host or cells: Escherichia coli BL21(DE3) with pRARE; plasmid pGEX-2TK-Dyrk2 (gift from W. Becker, Aachen)
T3 sequence (Q92630 1-601): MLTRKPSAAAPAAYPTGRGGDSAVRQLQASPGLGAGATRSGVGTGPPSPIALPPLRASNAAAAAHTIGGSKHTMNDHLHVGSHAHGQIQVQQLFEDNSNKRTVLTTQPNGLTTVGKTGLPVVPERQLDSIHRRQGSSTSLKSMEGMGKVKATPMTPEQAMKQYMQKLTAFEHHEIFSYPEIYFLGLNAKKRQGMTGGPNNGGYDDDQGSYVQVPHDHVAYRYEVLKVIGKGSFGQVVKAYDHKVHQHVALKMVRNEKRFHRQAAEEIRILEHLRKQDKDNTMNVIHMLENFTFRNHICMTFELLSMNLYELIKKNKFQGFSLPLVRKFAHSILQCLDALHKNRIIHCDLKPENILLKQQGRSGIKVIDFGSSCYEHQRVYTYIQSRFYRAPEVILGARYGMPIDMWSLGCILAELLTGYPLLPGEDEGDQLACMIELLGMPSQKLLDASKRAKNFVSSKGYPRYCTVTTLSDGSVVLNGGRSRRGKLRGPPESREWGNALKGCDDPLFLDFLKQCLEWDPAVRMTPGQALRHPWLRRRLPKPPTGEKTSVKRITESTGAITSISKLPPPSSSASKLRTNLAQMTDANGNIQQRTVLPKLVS

Dyrk1B = biological target: T4, Dyrk1B (Homo sapiens, UniProt Q9Y463); assay: Dyrk1B kinase assay (32P-ATP, Woodtide); type: biochemical; settings: at 5 µM; read-out: percentage of inhibition Dyrk1B
T4 construct: purchased Life Technologies PV4649 (LOT # 877059G)

U2OS osteosarcoma cells = assay: Caspase-3 Assay (Caspase-Glo 3/7); type: cell-based; settings: starved U2OS cells, 48 hours, vs DMSO control
Protocol: U2OS osteosarcoma cells were seeded in a 96 well flat bottom plate (15*10^3 cells/well). […] The induction of caspase-3/7 activity was measured using the Promega Caspase-Glo 3/7 assay system (Promega, LOT 0000054568). The resulting luciferase reaction signals that are proportional to the caspase induction were measured in a POLARstar plate reader (BMG Labtech, Offenburg, Germany). […] Values obtained for different compound concentrations were compared using the two-sided Student's t test; levels of significance thus obtained are indicated by asterisks.

[3] = Metabolic Stability Assay; settings: male, Sprague-Dawley, rat, microsomes
Clk1 = Clk1 (Homo sapiens, UniProt P49759); assay: Clk1 kinase assay (RS repeat peptide); type: biochemical; settings: read-out: % inhibition Clk1
Sequence of Clk1 (P49759 whole entry): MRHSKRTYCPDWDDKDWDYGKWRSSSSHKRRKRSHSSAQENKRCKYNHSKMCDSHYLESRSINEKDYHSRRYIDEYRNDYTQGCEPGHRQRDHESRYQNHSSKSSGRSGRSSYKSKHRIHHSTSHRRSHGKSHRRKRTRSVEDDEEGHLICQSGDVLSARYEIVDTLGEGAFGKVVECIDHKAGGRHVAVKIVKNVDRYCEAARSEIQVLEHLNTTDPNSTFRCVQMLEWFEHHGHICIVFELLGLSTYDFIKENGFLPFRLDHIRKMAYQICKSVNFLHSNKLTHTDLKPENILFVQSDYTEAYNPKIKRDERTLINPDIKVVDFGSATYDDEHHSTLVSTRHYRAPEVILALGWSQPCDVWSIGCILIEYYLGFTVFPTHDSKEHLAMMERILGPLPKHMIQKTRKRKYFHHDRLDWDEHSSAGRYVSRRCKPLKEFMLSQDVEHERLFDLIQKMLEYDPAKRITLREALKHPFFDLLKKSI

T1 sequence (P68400 whole entry): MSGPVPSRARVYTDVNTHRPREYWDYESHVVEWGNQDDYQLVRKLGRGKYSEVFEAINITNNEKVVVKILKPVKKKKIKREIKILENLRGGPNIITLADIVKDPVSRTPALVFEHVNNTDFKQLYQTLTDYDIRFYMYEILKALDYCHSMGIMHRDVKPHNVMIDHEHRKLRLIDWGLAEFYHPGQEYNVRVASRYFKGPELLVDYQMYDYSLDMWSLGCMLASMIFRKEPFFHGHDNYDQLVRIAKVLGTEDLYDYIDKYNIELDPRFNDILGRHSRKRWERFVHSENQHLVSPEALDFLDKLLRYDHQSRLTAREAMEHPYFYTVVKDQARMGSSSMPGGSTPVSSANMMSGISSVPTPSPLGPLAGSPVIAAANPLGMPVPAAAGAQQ
T4 sequence (Q9Y463 whole entry): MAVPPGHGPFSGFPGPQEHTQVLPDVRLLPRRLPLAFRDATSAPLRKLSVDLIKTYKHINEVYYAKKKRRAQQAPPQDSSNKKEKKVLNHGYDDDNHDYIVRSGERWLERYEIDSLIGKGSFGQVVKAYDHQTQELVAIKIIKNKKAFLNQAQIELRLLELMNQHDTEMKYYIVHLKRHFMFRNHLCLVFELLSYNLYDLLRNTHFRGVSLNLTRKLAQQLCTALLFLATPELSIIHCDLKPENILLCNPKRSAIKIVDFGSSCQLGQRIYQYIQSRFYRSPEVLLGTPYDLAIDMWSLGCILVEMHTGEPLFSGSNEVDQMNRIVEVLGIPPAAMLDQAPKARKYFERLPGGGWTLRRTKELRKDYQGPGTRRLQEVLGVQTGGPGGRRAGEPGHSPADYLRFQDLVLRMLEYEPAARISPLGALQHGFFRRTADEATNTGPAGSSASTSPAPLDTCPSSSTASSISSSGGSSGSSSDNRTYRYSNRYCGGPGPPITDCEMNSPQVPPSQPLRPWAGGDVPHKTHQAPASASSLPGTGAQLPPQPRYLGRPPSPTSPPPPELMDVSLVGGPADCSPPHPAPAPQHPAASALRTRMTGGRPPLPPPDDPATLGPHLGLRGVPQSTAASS

Row | Structure (SMILES) | inhibition at 5 µM (CK2α) | logP [1] | solubility ([1]; read-out: Solubility) | solubility ([1]; read-out: logS (converted)) | pKa ([1]; read-out: pka1) | pKa ([1]; read-out: pka2) | inhibition at 5 µM (Dyrk1A; at 5 µM) | influence on cell growth (cellular ATP levels) ([2]; V79 cells, 5, 10 and 20 µM) | inhibition at 5 µM (Dyrk2; at 5 µM) | inhibition at 5 µM (Dyrk1B) | caspase-3/7 activity (U2OS osteosarcoma cells) | CLhep predicted at 0.5 µM [3] | half-life at 0.5 µM [3] | inhibition at 5 µM (Clk1) | inhibition at 5 µM (Dyrk1A) | influence on cell viability (cellular ATP levels) ([2]; V79 cells, 5 µM) | IC50 (Dyrk2; IC50 Dyrk2, 100 µM ATP) | inhibition at 5 µM (Dyrk2)
1 | c1cncc(-c2csc(-c3cccnc3)c2)c1 [Compound 4] | 18.5% | 2.47 | 500 µg/mL | 2140 µM | 3.48 | 4.8 |  |  |  |  |  |  |  |  |  |  |  | 
2 | c1cncc(-c2cc(-c3ccncc3)cs2)c1 [Compound 11] | 0% |  |  |  |  |  | 10% | no influence | 20% | 10% | only a slight increase |  |  |  |  |  |  | 
3 | COc1ccc2c(c1)[nH]c1c(C)nccc12 [Harmine, harmine, reference compound] |  |  |  |  |  |  |  |  |  | 98% |  | 53 mL/min/kg | 18 min | 97% | 98% | slightly toxic | 3 µM | 68%
